From publication PMC6150311, “Proline-Based Carbamates as Cholinesterase Inhibitors” (Molecules : A Journal of Synthetic Chemistry and Natural …, 2017) come the findings set out here.

Test [1] addresses T1, AChE from electric eel (Electrophorus electricus) (Electrophorus electricus, UniProt O42275).
T1 construct: AChE (from electric eel) and BChE (from equine serum); purchased Sigma, St. Louis, MO, USA; host or cells: electric eel (animal source)
The test is described as follows: In vitro AChE inhibition, modified Ellman's method. The test is classed as biochemical. How it is done: (§1) The ability of all prepared compounds to inhibit AChE from electric eel (Electrophorus electricus) and BChE from equine serum (both purchased from Sigma, St. Louis, MO, USA) was determined in vitro using a modified Ellman’s method. […] The Ellman’s method is widely used for measuring cholinesterase activity and the effectivity of ChEIs. It is a simple, rapid and direct method to determine SH and –S–S– groups content in proteins. Cholinesterase activity is measured indirectly by quantifying the concentration of 5-thio-2-nitrobenzoic acid (TNB) ion formed in the reaction between disulfide reagent 5,5′-dithiobis-2-nitrobenzoic acid (DTNB) and thiocholine, a product of substrate (i.e., acetylthiocholine, ATCh) hydrolysis catalyzed by cholinesterase.
(§2) All tested compounds were dissolved in DMSO (concentration 0.01 M) and diluted in demineralized water (concentrations 0.001 M and 0.0001 M). The ability of tested compounds to inhibit AChE (from electric eel) and BChE (from equine serum) was determined using the modified Ellman’s method at 25 °C in the presence of phosphate buffered saline (PBS, 0.1 M, pH 7.4) in a glass cuvette with 1 cm optical path. The enzyme activity in total reaction mixture (2 mL) was 0.2 U/mL, the concentration of substrate ATCh 40 μM and the concentration of DTNB 0.1 mM for all reactions. The IC50 value was obtained from the dependence of v0/vi on the concentration of the tested compound (inhibitor), where v0 is the reaction rate of uninhibited reaction and vi is the reaction rate of inhibited reaction (for the given concentration of the inhibitor). First, v0 was determined. Into the cuvette PBS (0.1 M, pH 7.4), DTNB and ATCh were placed. The enzymatic reaction was started by adding the enzyme. […] The measurement was performed in triplicate at least, and average v0 was determined. Then, vi (for the given concentration of the inhibitor) was determined. Into the cuvette DTNB, ATCh, a chosen volume of the suitably diluted inhibitor (to achieve the required concentration of the inhibitor in the total reaction mixture) and a certain volume of PBS (to achieve the total volume of the reaction mixture 2 mL after adding the enzyme) were placed. The enzymatic reaction was started by adding the enzyme. […] For determination of IC50 values, twelve different concentrations of inhibitor were used and each measurement was performed in triplicate at least.

In test [2] the target is T2, BChE from equine serum (Equus caballus, UniProt P81908).
T2 construct: BChE (from equine serum); purchased Sigma, St. Louis, MO, USA; host or cells: equine serum
T2 sequence (P81908 whole entry): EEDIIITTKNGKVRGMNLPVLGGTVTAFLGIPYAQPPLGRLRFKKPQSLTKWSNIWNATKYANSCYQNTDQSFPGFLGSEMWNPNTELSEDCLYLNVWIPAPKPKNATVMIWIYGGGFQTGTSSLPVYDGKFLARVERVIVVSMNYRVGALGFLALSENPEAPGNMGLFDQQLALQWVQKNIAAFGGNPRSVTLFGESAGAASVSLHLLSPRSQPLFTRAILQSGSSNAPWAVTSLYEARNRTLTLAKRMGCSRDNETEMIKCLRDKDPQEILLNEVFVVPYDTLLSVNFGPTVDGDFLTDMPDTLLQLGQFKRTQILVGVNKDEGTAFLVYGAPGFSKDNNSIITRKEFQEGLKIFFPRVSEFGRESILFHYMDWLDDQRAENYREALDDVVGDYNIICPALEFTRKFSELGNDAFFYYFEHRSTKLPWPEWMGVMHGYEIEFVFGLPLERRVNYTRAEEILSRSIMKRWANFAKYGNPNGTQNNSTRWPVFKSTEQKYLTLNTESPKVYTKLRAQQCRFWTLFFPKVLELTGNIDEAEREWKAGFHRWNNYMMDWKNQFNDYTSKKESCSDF
The test is described as follows: In vitro BChE inhibition, modified Ellman's method. The test is classed as biochemical. To be noted: for SI (index selectivity) = IC50 (AChE)/IC50 (BChE): ratio AChE/BChE, higher = more selective to BChE. How it is done: as §1, §2
Background: Ellman's reagent forms a yellow product with free thiols.

For test [3], the system named is human monocytic leukemia THP-1 cells. The test is described as follows: In vitro cytotoxicity assay (WST-1). The test is classed as cell-based. To be noted: 24 h, highest tested concentration 30 μM, read-out: tox. IC50. How it is done: The cytotoxicity was evaluated as the IC50 value (compound concentration causing 50% inhibition of cell population proliferation) (see Table 1). […] Based on these observations, it can be concluded that the discussed compounds can be considered as non-toxic agents for subsequent design of novel drugs.
Human monocytic leukemia THP-1 cells were used for in vitro toxicity assay. Cells were obtained from the European Collection of Cell Cultures (ECACC, Salisbury, UK) and routinely cultured in RPMI 1640 (Lonza, Verviers, Belgium) medium supplemented with 10% fetal bovine serum (FBS, Sigma), 2% L-glutamine, 1% penicillin and streptomycin (Lonza, Verviers, Belgium) at 37 °C with 5% CO2. Cells were passaged at approximately one week intervals. The cytotoxicity of the compounds was determined using a WST-1 assay kit (Roche Diagnostics, Mannheim, Germany) according to the manufacturer’s instructions. The tested compounds were dissolved in DMSO and added in five increasing concentrations (0.37, 1.1, 3.3, 10, and 30 μM) to the cell suspension in the culture RPMI 1640 medium. The maximum concentration of DMSO (Sigma) in the assays never exceeded 0.1%. Subsequently, the cells were incubated for 24 h at 37 °C with 5% CO2. For WST-1 assays, cells were seeded into 96-well plates (5 × 10^4 cells/well in 100 μL culture medium) in triplicate in serum-free RPMI 1640 medium, and measurements were taken 24 h after the treatment with the compounds. The median inhibition concentration values, IC50, were deduced through the production of a dose-response curve. All data were evaluated using the GraphPad Prism 5.00 software (GraphPad Software, San Diego, CA, USA).
In general terms: Formazan colour is commonly taken as a measure of viable cells.

Each structure is given as a SMILES string.

T1 sequence (O42275 24-633): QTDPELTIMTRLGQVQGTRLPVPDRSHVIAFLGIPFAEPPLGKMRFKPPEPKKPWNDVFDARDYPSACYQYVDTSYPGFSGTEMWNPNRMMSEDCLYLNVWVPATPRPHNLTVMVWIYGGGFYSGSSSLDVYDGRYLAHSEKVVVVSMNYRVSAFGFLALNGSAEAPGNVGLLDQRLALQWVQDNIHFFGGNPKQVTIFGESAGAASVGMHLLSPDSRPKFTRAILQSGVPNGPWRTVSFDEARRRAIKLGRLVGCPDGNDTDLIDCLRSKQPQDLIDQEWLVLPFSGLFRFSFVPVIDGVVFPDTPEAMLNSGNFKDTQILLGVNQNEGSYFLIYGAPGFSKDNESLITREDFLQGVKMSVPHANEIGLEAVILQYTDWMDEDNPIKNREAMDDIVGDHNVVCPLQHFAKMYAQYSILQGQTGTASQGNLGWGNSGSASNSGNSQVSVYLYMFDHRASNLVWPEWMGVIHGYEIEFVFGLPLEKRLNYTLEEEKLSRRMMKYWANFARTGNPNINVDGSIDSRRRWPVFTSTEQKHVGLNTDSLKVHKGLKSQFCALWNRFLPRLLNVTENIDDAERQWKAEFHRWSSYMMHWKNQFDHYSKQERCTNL

For the compound `COc1cccc(NC(=O)[C@@H]2CCCN2C(=O)OCc2ccccc2)c1` [Compound 2b, Benzyl (2S)-2-[(3-methoxyphenyl)carbamoyl]pyrrolidine-1-carboxylate], the IC50 in test [1] is 126 ± 2.79 µM; in test [2] it was 58.47 ± 0.42 µM; in test [3], more than 30 µM. Further, the “SI (index selectivity) = IC50 (AChE)/IC50 (BChE)” value in test [2] is on record as 2.16.
The like results for `O=C(Nc1ccc(F)cc1)[C@@H]1CCCN1C(=O)OCc1ccccc1` [Compound 4c, Benzyl (2S)-2-[(4-fluorophenyl)carbamoyl]pyrrolidine-1-carboxylate] were, in that order, 87.2 ± 1 µM, 58.1 ± 1.39 µM, more than 30 µM and 1.50.
Taken in the same sequence, the figures for `O=C(Nc1ccc(C(F)(F)F)cc1)[C@@H]1CCCN1C(=O)OCc1ccccc1` [Compound 7c, Benzyl (2S)-2-{[4-(trifluoromethyl)phenyl]carbamoyl}pyrrolidine-1-carboxylate] were 88.6 ± 1.6 µM, 75.5 ± 2.94 µM, more than 30 µM and 1.17.
The like results for `Cc1cccc(NC(=O)[C@@H]2CCCN2C(=O)OCc2ccccc2)c1` [Compound 3b, Benzyl (2S)-2-[(3-methylphenyl)carbamoyl]pyrrolidine-1-carboxylate] were, in that order, 81.06 ± 0.03 µM, 115 ± 4.83 µM, more than 30 µM and 0.71.
Consider `O=C(Nc1ccccc1)[C@@H]1CCCN1C(=O)OCc1ccccc1` [Compound 1, Benzyl (2S)-2-(phenylcarbamoyl)pyrrolidine-1-carboxylate], for which the figures for the IC50 in test [1], in test [2] and in test [3] were 106 ± 2.2 µM, 55.6 ± 1.01 µM and more than 30 µM, respectively. Moreover, the “SI (index selectivity) = IC50 (AChE)/IC50 (BChE)” value in test [2] turned out to be 1.91.
The like results for `O=C(Nc1ccccc1Cl)[C@@H]1CCCN1C(=O)OCc1ccccc1` [Compound 5a, Benzyl (2S)-2-[(2-chlorophenyl)carbamoyl]pyrrolidine-1-carboxylate] were, in that order, 46.4 ± 1.05 µM, 53.47 ± 0.52 µM, more than 30 µM and 0.87.

By IC50 is commonly meant the point on the concentration scale where inhibition reaches its midpoint.
